biological target: human GluN1/GluN2B NMDA receptors (Homo sapiens, UniProt Q05586+Q13224); assay: Cell-based calcium flux (FLIPR) assay on cloned human NR1/NR2B ion channels expressed in mammalian cells; conditions: standard assay; human GluN1/GluN2B, calcium flux (FLIPR), glutamate ~EC80
Summary of the method: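 Calcium influx followed by FLIPR fluorescence after 5 min compound exposure and a further 5 min co-agonist challenge: 10 μM glycine with glutamate at ~EC80 (standard) or EC40 (HTS).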

human GluN1/GluN2B NMDA receptors, sequence (Q13224 27-1484, other chains not shown): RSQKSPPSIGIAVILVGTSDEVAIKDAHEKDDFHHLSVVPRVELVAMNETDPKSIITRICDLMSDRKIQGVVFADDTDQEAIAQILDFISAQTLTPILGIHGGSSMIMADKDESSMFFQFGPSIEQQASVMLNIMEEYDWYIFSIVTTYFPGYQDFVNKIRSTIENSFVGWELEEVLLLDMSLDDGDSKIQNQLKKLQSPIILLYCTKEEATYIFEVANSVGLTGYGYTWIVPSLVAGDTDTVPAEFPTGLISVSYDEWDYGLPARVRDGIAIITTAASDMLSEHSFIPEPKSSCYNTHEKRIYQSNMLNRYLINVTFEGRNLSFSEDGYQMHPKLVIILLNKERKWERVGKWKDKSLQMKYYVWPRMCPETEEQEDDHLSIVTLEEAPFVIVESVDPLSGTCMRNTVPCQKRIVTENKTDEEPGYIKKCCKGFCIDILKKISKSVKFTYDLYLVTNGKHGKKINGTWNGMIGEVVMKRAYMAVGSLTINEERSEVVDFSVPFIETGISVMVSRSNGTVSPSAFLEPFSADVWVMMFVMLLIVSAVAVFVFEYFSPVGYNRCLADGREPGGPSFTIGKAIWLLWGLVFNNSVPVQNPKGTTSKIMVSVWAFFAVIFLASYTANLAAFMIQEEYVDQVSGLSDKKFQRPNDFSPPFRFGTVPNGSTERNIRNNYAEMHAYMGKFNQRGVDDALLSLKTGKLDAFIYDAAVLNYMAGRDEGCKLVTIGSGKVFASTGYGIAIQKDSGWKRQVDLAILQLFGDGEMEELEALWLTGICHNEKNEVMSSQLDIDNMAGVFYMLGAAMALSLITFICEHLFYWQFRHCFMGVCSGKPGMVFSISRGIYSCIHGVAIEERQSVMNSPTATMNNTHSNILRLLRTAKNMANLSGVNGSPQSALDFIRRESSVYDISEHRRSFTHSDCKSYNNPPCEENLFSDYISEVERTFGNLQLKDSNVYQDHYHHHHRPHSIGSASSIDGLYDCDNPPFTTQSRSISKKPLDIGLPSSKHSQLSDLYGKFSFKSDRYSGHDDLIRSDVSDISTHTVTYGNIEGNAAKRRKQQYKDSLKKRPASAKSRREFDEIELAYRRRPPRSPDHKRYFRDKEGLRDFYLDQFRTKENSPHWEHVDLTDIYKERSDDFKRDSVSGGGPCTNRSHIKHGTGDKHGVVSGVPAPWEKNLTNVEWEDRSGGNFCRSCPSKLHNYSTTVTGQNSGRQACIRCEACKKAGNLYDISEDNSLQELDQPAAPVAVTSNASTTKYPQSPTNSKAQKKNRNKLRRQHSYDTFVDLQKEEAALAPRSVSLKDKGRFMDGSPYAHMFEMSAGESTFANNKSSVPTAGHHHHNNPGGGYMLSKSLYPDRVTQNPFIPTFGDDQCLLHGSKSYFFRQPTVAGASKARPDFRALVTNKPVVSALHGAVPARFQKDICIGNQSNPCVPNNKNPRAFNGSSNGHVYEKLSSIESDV

Structure (SMILES)	IC50 [µM]
OCc1ccnc(OCc2cn(-c3cccc(C(F)F)c3)nn2)n1 [Example 159, [2-[[1-[3-(Difluoromethyl)phenyl]triazol-4-yl]methoxy]pyrimidin-4-yl]methanol]	0.408
OCc1cnc(OCc2cn(-c3cccc(C(F)F)c3)nn2)nc1 [Example 160, [2-[[1-[3-(Difluoromethyl)phenyl]triazol-4-yl]methoxy]pyrimidin-5-yl]methanol]	0.173
Cc1cnc(OCc2cn(-c3cccc(C(F)F)c3)nn2)nc1N [Example 161, 2-[[1-[3-(Difluoromethyl)phenyl]triazol-4-yl]methoxy]-5-methyl-pyrimidin-4-amine]	0.055
CNC(=O)c1ccnc(OCc2cn(-c3ccc(F)c(C(F)F)c3)nn2)n1 [Example 162, 2-[[1-[3-(Difluoromethyl)-4-fluoro-phenyl]triazol-4-yl]methoxy]-N-methyl-pyrimidine-4-carboxamide]	> 2.99
Fc1ccc(-n2cc(COc3ncc(Cl)cn3)nn2)cc1 [Example 164, 5-Chloro-2-[[1-(4-fluorophenyl)triazol-4-yl]methoxy]pyrimidine]	0.371
Fc1ccc(-n2cc(COc3ncc(N4CCC4)cn3)nn2)cc1OC(F)F [Example 165, 5-(Azetidin-1-yl)-2-[[1-[3-(difluoromethoxy)-4-fluoro-phenyl]triazol-4-yl]methoxy]pyrimidine]	0.016
Fc1ccc(-n2cc(COc3nccc(N4CCC(F)(F)C4)n3)nn2)cc1OC(F)F [Example 166, 2-[[1-[3-(Difluoromethoxy)-4-fluoro-phenyl]triazol-4-yl]methoxy]-4-(3,3-difluoropyrrolidin-1-yl)pyrimidine]	0.144
Nc1nc(OCc2cn(-c3ccc(F)c(OC(F)F)c3)nn2)ncc1F [Example 167, 2-((1-(3-(Difluoromethoxy)-4-fluorophenyl)-1H-1,2,3-triazol-4-yl)methoxy)-5-fluoropyrimidin-4-amine]	0.013
Fc1ccc(-n2cc(COc3nccc(N4CCCC4)n3)nn2)cc1OC(F)F [Example 168, 2-[[1-[3-(Difluoromethoxy)-4-fluoro-phenyl]triazol-4-yl]methoxy]-4-pyrrolidin-1-yl-pyrimidine]	0.008
Fc1ccc(-n2cc(COc3nccc(N4CCCCC4)n3)nn2)cc1OC(F)F [Example 169, 2-[[1-[3-(Difluoromethoxy)-4-fluoro-phenyl]triazol-4-yl]methoxy]-4-(1-piperidyl)pyrimidine]	0.031
Fc1ccc(-n2cc(COc3nccc(N4CCOCC4)n3)nn2)cc1OC(F)F [Example 170, 4-[2-[[1-[3-(Difluoromethoxy)-4-fluoro-phenyl]triazol-4-yl]methoxy]pyrimidin-4-yl]morpholine]	0.26
CNc1ccnc(OCc2cn(-c3ccc(Cl)c(OC(F)F)c3)nn2)n1 [Example 171, 2-[[1-[4-Chloro-3-(difluoromethoxy)phenyl]triazol-4-yl]methoxy]-N-methyl-pyrimidin-4-amine]	0.006
COc1cnc(OCc2nnn(-c3cccc(C(F)F)c3)c2C)nc1 [Example 172, 2-[[1-[3-(Difluoromethyl)phenyl]-5-methyl-triazol-4-yl]methoxy]-5-methoxy-pyrimidine]	0.468
Cc1cnc(OCc2nnn(-c3ccc(F)c(C(C)(F)F)c3)c2C)nc1 [Example 173, 2-[[1-[3-(1,1-Difluoroethyl)-4-fluoro-phenyl]-5-methyl-triazol-4-yl]methoxy]-5-methyl-pyrimidine]	0.465
Cc1cnc(OCc2cn(-c3cccc(C)n3)nn2)nc1 [Example 174, 5-Methyl-2-[[1-(6-methyl-2-pyridyl)triazol-4-yl]methoxy]pyrimidine]	> 2.99
Cc1cnc(OCc2cn(-c3ccnc(C)c3)nn2)nc1 [Example 175, 5-Methyl-2-[[1-(2-methyl-4-pyridyl)triazol-4-yl]methoxy]pyrimidine]	0.655
Cc1cnc(OCc2cn(-c3cncc(C)c3)nn2)nc1 [Example 176, 5-Methyl-2-[[1-(5-methyl-3-pyridyl)triazol-4-yl]methoxy]pyrimidine]	0.929
Cc1cnc(OCc2cn(-c3ccnc(Br)c3)nn2)nc1 [Example 177, 2-[[1-(2-Bromo-4-pyridyl)triazol-4-yl]methoxy]-5-methyl-pyrimidine]	0.172
CC(C)(O)c1cnc(OCc2cn(-c3ccc(F)c(C4CCC4)c3)nn2)nc1 [Example 178, 2-[2-[[1-(3-Cyclobutyl-4-fluoro-phenyl)triazol-4-yl]methoxy]pyrimidin-5-yl]propan-2-ol]	0.349
CC(C)c1cc(-n2cc(COc3ncc(C(C)(C)O)cn3)nn2)ccc1F [Example 179, 2-[2-[[1-(4-Fluoro-3-isopropyl-phenyl)triazol-4-yl]methoxy]pyrimidin-5-yl]propan-2-ol]	0.029
CC(C)(O)c1cnc(OCc2cn(-c3ccc(F)c(C4CC4)c3)nn2)nc1 [Example 180, 2-[2-[[1-(3-Cyclopropyl-4-fluoro-phenyl)triazol-4-yl]methoxy]pyrimidin-5-yl]propan-2-ol]	0.133

Structure (SMILES)	IC50 [µM]
Cc1cc(-n2cc(COc3ncc(C(C)(C)O)cn3)nn2)ccc1F [Example 181, 2-[2-[[1-(4-Fluoro-3-methyl-phenyl)triazol-4-yl]methoxy]pyrimidin-5-yl]propan-2-ol]	0.097
CCc1cc(-n2cc(COc3ncc(C(C)(C)O)cn3)nn2)ccc1F [Example 182, 2-[2-[[1-(3-Ethyl-4-fluoro-phenyl)triazol-4-yl]methoxy]pyrimidin-5-yl]propan-2-ol]	0.027
CC(F)(F)c1cc(-n2cc(COc3ncc(Br)cn3)nn2)ccc1F [Example 183, 5-Bromo-2-[[1-[3-(1,1-difluoroethyl)-4-fluoro-phenyl]triazol-4-yl]methoxy]pyrimidine]	0.009
Cn1ccc(-c2cnc(OCc3cn(-c4ccc(F)c(C(C)(F)F)c4)nn3)nc2)n1 [Example 184, 2-[[1-[3-(1,1-Difluoroethyl)-4-fluoro-phenyl]triazol-4-yl]methoxy]-5-(1-methylpyrazol-3-yl)pyrimidine]	0.309
CC(F)(F)c1cc(-n2cc(COc3ncc(-c4cn[nH]c4)cn3)nn2)ccc1F [Example 185, 2-[[1-[3-(1,1-Difluoroethyl)-4-fluoro-phenyl]triazol-4-yl]methoxy]-5-(1H-pyrazol-4-yl)pyrimidine]	0.166
CC(F)(F)c1cc(-n2cc(COc3nccc(-c4cn[nH]c4)n3)nn2)ccc1F [Example 186, 2-[[1-[3-(1,1-Difluoroethyl)-4-fluoro-phenyl]triazol-4-yl]methoxy]-4-(1H-pyrazol-4-yl)pyrimidine]	1.36
CC(F)(F)c1cc(-n2cc(COc3ncc(N4CCOCC4)cn3)nn2)ccc1F [Example 187, 4-(2-((1-(3-(1,1-Difluoroethyl)-4-fluorophenyl)-1H-1,2,3-triazol-4-yl)methoxy)pyrimidin-5-yl)morpholine]	0.088
FC(F)c1cc(-n2cc(COc3ncccn3)nn2)ccc1N1CCC1 [Example 188, 2-((1-(4-(Azetidin-1-yl)-3-(difluoromethyl)phenyl)-1H-1,2,3-triazol-4-yl)methoxy)pyrimidine]	4.58
Fc1cnc(OCc2cn(-c3ccc(Cl)c(OC(F)F)c3)nn2)cn1 [Example 189, 2-[[1-[4-Chloro-3-(difluoromethoxy)phenyl]triazol-4-yl]methoxy]-5-fluoro-pyrazine]	1.46
FC(F)Oc1cc(-n2cc(COc3nccc(Cl)n3)nn2)ccc1Cl [Example 190, 4-Chloro-2-[[1-[4-chloro-3-(difluoromethoxy)phenyl]triazol-4-yl]methoxy]pyrimidine]	0.026
Fc1ccnc(OCc2cn(-c3ccc(Cl)c(OC(F)F)c3)nn2)n1 [Example 191, 2-[[1-[4-Chloro-3-(difluoromethoxy)phenyl]triazol-4-yl]methoxy]-4-fluoro-pyrimidine]	0.023
FCCOc1cnc(OCc2cn(-c3ccc(Cl)c(OC(F)F)c3)nn2)nc1 [Example 192, 2-[[1-[4-Chloro-3-(difluoromethoxy)phenyl]triazol-4-yl]methoxy]-5-(2-fluoroethoxy)pyrimidine]	0.03
COc1cnc(OCc2cn(-c3ccc(Cl)c(OCCF)c3)nn2)nc1 [Example 193, 2-[[1-[4-Chloro-3-(2-fluoroethoxy)phenyl]triazol-4-yl]methoxy]-5-methoxy-pyrimidine]	0.089
COc1cnc(OCc2cn(-c3ccc(F)c(CCCF)c3)nn2)nc1 [Example 194, 2-[[1-[4-Fluoro-3-(3-fluoropropyl)phenyl]triazol-4-yl]methoxy]-5-methoxy-pyrimidine]	0.061
COc1cnc(OCc2cn(-c3ccc(F)c(CCCCl)c3)nn2)nc1 [Example 195, 2-[[1-[3-(3-Chloropropyl)-4-fluoro-phenyl]triazol-4-yl]methoxy]-5-methoxy-pyrimidine]	0.136
FCCCc1cnc(OCc2cn(-c3ccc(Cl)c(OC(F)F)c3)nn2)nc1 [Example 196, 2-[[1-[4-Chloro-3-(difluoromethoxy)phenyl]triazol-4-yl]methoxy]-5-(3-fluoropropyl)pyrimidine]	0.024
Fc1cnc(NCc2cn(-c3cccc(C(F)F)c3)nn2)nc1 [Example 197, N-[[1-[3-(Difluoromethyl)phenyl]triazol-4-yl]methyl]-5-fluoro-pyrimidin-2-amine]	0.652
Cc1cnc(NCc2cn(-c3ccc(F)c(C)c3)nn2)nc1 [Example 198, N-[[1-(4-Fluoro-3-methyl-phenyl)triazol-4-yl]methyl]-5-methyl-pyrimidin-2-amine]	0.147
Cc1cc(-n2cc(CNc3ncc(Cl)c(C)n3)nn2)ccc1F [Example 199, 5-Chloro-N-[[1-(4-fluoro-3-methyl-phenyl)triazol-4-yl]methyl]-4-methyl-pyrimidin-2-amine]	0.051
FC(F)c1cc(-n2cc(CNc3ncc(Cl)cn3)nn2)ccc1Cl [Example 200, 5-Chloro-N-[[1-[4-chloro-3-(difluoromethyl)phenyl]triazol-4-yl]methyl]pyrimidin-2-amine]	0.131

— patent US10233173B2, “Substituted 1,2,3-triazoles as NR2B-selective NMDA modulators” (JANSSEN PHARMACEUTICA NV, priority 2016, dated 2019)
